Experimental data reported in the METLIN SMRT retention time set (Domingo-Almenara et al. 2019).

Experiment: gradient 5% acetonitrile 3 min, to 50% in 2 min, to 85% in 15 min, held 3 min, 100 µL/min
Details: column: Zorbax Extend-C18 2.1 x 50 mm; eluents: water / acetonitrile, 0.1% formic acid
How it was run: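 In both positive and negative ionization mode, a quadrupole time-of-flight mass spectrometer coupled to HPLC analyzed pure standards run in mixtures of ~100 molecules. The Zorbax Extend-C18 column (2.1 × 50 mm, 1.8 μm) was operated at 100 μL/min with water and acetonitrile, each containing 0.1% formic acid. The dead volume was 40 μL and the dwell volume 900 μL. Retention time came from adduct peaks that were computationally picked and individually inspected by hand.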

| SMILES | RP-LC retention time [s] |
| --- | --- |
| CC(=O)Nc1ccc(S(=O)(=O)N=S(C)C)cc1 | 608 |
| O=C(CCc1c[nH]c2ccccc12)N1CCCN(C2CCN(CC3CC3)C2=O)CC1 (configuration not stated) | 570 |
| CC(C)c1cc(C(=O)Nc2ccc(F)c(F)c2)nc2ccnn12 | 1180 |
| O=C(C1CC1)N1[C@H]2CC[C@@H]1c1cnc(-c3ccccc3)nc1C2 | 817 |
| Cc1cc(C)c2c(N3CCSCC3)nc(C(=O)NCC(C)C)nc2n1 | 658 |
| CCCn1c(CCNC(=O)c2ccc(C#N)cc2)nc2cccnc21 | 662 |
| CCNC(=O)c1ncn2c1C(=O)N(C1CC1)C(C)(C(=O)NCc1ccccc1)C2 (configuration not stated) | 656 |
| COc1ccc2sc(NCc3cccnc3)nc2c1 | 556 |
| Cc1ccc2nc(SCC(=O)N3CCCCC3)[nH]c2c1 | 590 |
| COc1ccc(CCc2nc3nccc(-c4ccc(OC)c(OC)c4)n3n2)cc1 | 856 |
| COCCCN1CN=C(Nc2nc(C)c3cc(C)ccc3n2)NC1 | 555 |
| CCOC(=O)C1CCN(C(=O)C2CCN(S(=O)(=O)c3ccc4c(c3)CCCC(=O)N4)CC2)CC1 | 713 |
| Cc1cc(N2CCCCC2)n2nc(CN3CCC4(CC3)OCCO4)nc2n1 | 580 |
| Nc1ccc(-c2nc3ccccc3s2)cc1 | 803 |
| COc1nn(C)cc1C(=O)NCC(=O)NC1CCSC1=O (configuration not stated) | 559 |
| CCS(=O)(=O)N1CCC([C@@H](C)n2c(C)c(C(=O)NCc3c(OC)cc(C)[nH]c3=O)c3ccccc32)CC1 | 777 |
| COc1ccc(-c2nc3cnccn3c2Nc2ccc(C(C)C)cc2)cc1OC | 936 |
| Cn1c(=O)n(C2CCN(C(=O)Cc3ccccc3)CC2)c2ncncc21 | 655 |
| CCN1C(=O)c2c(C(=O)NCc3ccc(C)cc3)ncn2CC1(C)C(=O)NC1CCCC1 (configuration not stated) | 783 |
| Cc1cccc(NC(=O)CN2C(=O)C3CCCCN3c3ccc(C(=O)N4CCCC4)cc32)c1 (configuration not stated) | 853 |
| COc1ccc(F)cc1S(=O)(=O)N1CCc2nn(CC3CC3)c(=O)n2CC1 | 834 |
| COc1ccc(NC(=O)N2CCc3c(C(=O)NC4CCN(C)CC4)cccc32)cc1 | 603 |

| SMILES | RP-LC retention time [s] |
| --- | --- |
| CCOC(=O)c1c(C)c(CCC(=O)NCc2ccco2)n(C)c1C | 792 |
| CCCn1ccc2oc(C)c(C(=O)NCc3cc(F)ccc3F)c2c1=O | 1040 |
| CCOc1ccc(-c2noc(CN3C(=O)C(C)Oc4ccccc43)n2)cc1OC (configuration not stated) | 1040 |
| Cc1cc(Cl)ccc1OCC(=O)NCC1CCOCC1 | 828 |
| COc1ccccc1NC(=O)Cn1cnc2onc(C)c2c1=O | 748 |
| COc1ccc(Cn2c(=O)c3sccc3n(Cc3nc(-c4ccccc4Cl)no3)c2=O)cc1 | 1090 |
| CCC(=O)N1CCc2cc(S(=O)(=O)CCC(=O)N3CCN(c4ccc(C)cc4)C(C)C3)ccc21 (configuration not stated) | 704 |
| CCOc1ccc(S(=O)(=O)N2CCCC(C(=O)NCCOC)C2)cc1 (configuration not stated) | 709 |
| CC(=O)c1cccc(NC(=O)Cn2c(-c3ccc(Cl)cc3)nc(C)cc2=O)c1 | 1060 |
| Cc1ccc(-c2noc(C3CCCN3S(=O)(=O)c3ccc(C(C)C)cc3)n2)cc1 (configuration not stated) | 1310 |
| Cc1ccc(-c2cc3c(=O)n(Cc4noc(CN5CCC(C)CC5)n4)ccn3n2)cc1 | 713 |
| O=C(C1CCCN(c2ncnc3c2nc2n3CCCCC2)C1)N(Cc1ccco1)C1CCCCC1 (configuration not stated) | 1020 |
| Cc1cnc(C(=O)NC2C[C@H]3CC[C@@H](C2)N3C(=O)Cc2c(C)noc2C)cn1 (some centres not stated) | 611 |
| CCN(C(=O)C1CCN(S(=O)(=O)c2ccc3c(c2)sc(=O)n3CC)CC1)c1ccccc1 | 942 |
| CCOC(=O)c1ccc(Nc2c(-c3ccc(OC)cc3)nc3cnccn23)cc1 | 641 |
| Cn1c(CCNC(=O)c2cccc(C#N)c2)nc2cccnc21 | 601 |
| CC1CCCCN1CCCNC(=O)C1CCCN(c2ncnc3c2nc2n3CCCCC2)C1 (configuration not stated) | 589 |
| CCc1nc2cc(-c3noc(-c4ccncc4)n3)ccc2o1 | 959 |
| COC(=O)c1cccc(NC(=O)NC2CCCN2S(=O)(=O)c2ccc(Cl)cc2)c1 (configuration not stated) | 821 |
| CCc1ccc(C2=C(C)C(N3CCCN(C(=O)C(C)(C)C)CC3)=NS2(=O)=O)cc1 | 901 |
| Cc1cccc(Cn2c(=O)n(CCNC(=O)C3CCCO3)c3ncccc32)c1 (configuration not stated) | 715 |
| O=C(NCCN1CCCCC1)c1ccc(I)cc1 | 678 |

Other lines, results leading:

| RP-LC retention time [s] | SMILES |
| --- | --- |
| 1270 | CCCOc1nc2ccccc2nc1N1CCCC(C(=O)NCc2ccccc2Cl)C1 (configuration not stated) |
| 1050 | O=C(Nc1ccc(Br)cc1F)N1CCc2nc(-c3ccc(F)cc3)ncc2C1 |
| 830 | Cn1cc(-c2cc3n(n2)CCC(=O)N3CC(=O)NCc2ccccc2Cl)c2ccccc21 |
| 1100 | COc1ccc(C2Cn3nnc(-c4nc(-c5ccccc5)no4)c3CO2)cc1 (configuration not stated) |
| 747 | Cc1ccc2c(c1)-c1onc(C(=O)N3CCN(c4ccccn4)CC3)c1CO2 |
| 875 | COC(=O)c1ccccc1Sc1c(-c2ccccc2)nc2ncccn12 |
| 571 | O=C(CCc1c(-c2ccc(Cl)cc2)nc2ccccn12)NCc1ccccn1 |
| 927 | Cc1ccc(N2CCOCC2)c2c1C(=O)c1ccccc1C2=O |
| 1150 | Fc1ccccc1N1CCN(c2ncccc2-c2nnc(-c3ccccc3)o2)CC1 |
| 623 | COc1ccccc1C(=O)N1CCN(c2cnn3c(C4CC4)nnc3c2)CC1 |
| 589 | CC(C)NC(=O)Cn1c(-c2ccccc2F)nc2ccccc21 |
| 613 | O=C(c1noc2c1CCCC2)N1CCN(c2ccccn2)CC1 |
| 741 | CC(=O)N1CCc2cc(N3CC(C(=O)NCc4cccc(F)c4)CC3=O)ccc21 (configuration not stated) |
| 913 | COC(c1ccccc1)(c1ccccc1)[C@H](Oc1nc(C)cc(C)n1)C(=O)O |
| 935 | O=C(NC1CCCCC1)c1cccc(Nc2c(-c3ccc(Cl)cc3)nc3cnccn23)c1 |
| 782 | O=C(O)c1ccccc1C(=O)Nc1ccccc1[N+](=O)[O-] |
| 688 | Cc1ccc(-c2ncccc2CNS(=O)(=O)c2ccc(C#N)cc2)cc1 |
| 576 | O=C(c1ccc2snnc2c1)N1CCN(c2ccccn2)CC1 |
| 840 | CCc1nc2cc(N3CCC(C(=O)NCc4ccccc4F)CC3)cnc2nc1CC |
| 873 | COc1ccccc1-n1ccn2cc(-c3cccc(Cl)c3)nc2c1=O |
| 990 | Cc1c(-c2noc(-c3ccc4c(c3)OCO4)n2)nnn1Cc1cccc(F)c1 |
| 1270 | O=S(=O)(c1ccc(Cl)cc1)N1CCc2nc(-c3ccc(Cl)cc3)ncc2C1 |
| 722 | CCn1cc(-c2ccc(F)cc2)cc1C(=O)NCc1ccccn1 |
